# Data: patent publication US20090291964A1, “Potentiators of Antibacterial Activity” (priority 2003, published 2009)
# Read-outs that look alike come from different tables or passages of the source.
# What was measured:
# Format in all cases: cell-based
# S. aureus ATCC 29213 [1] = assay: Minimal effective concentration (MEC) of EPI for EtBr; conditions: for MEC of EPI: S. aureus ATCC 29213, lowest amount of EPI which produces the maximum effect on the MIC of ethidium bromide
# Description: (§1) The MEC was determined as the minimal concentration of EPI that produced the maximal reduction in substrate MIC.
# (§2) The minimum effective concentration (MEC) for inhibition of EtBr efflux was determined in S. aureus, E. faecalis and S. pneumoniae for A-106 and C-9; reserpine was used as a comparator (Table 1).
# E. faecalis ATCC 29212 = assay: as above; conditions: lowest amount of EPI which produces the maximum effect on the MIC of ethidium bromide
# Description: as §1, §2
# [2] = test system: S. aureus clinical isolates; assay: MIC90 studies: fluoroquinolone susceptibility of clinical isolate panel with EPI; conditions: EPI at 50 μg/ml
# Description: Susceptibility studies with large panels of resistant clinical isolates were performed at Focus Technologies, Herndon, Va. according to NCCLS protocols (National Committee for Clinical Laboratory Standards, supra).
# To be useful in combination therapy, an EPI needs to substantially reduce the MIC of an antibiotic to within the range of clinical susceptibility. Because many different resistance mechanisms are often present in clinical isolates, including the likelihood of multiple target-based mutations in addition to efflux mutations, the barrier to antibiotic efficacy is much greater. […] Oxacillin and vancomycin MICs were also determined to identify which isolates were methicillin-resistant (S. aureus) and vancomycin-resistant (E. faecalis).
# [3] = test system: S. aureus SA-1199B (NorA overproducing); assay: MIC of fluoroquinolones with and without EPI; conditions: for Fold-reduction in MIC: gatifloxacin, S. aureus SA-1199B (NorA overproducer)
# From the text: A variety of strains may be used in these experiments, including, but not limited to, S. aureus ATCC 29213, E. faecalis ATCC 29212, and S. pneumoniae, S. aureus strains SA-1199, SA-1199B, SA-8325-4, and SA-K2068. S. aureus ATCC 29213, E. faecalis ATCC 29212, and S. pneumoniae ATCC 10015 were obtained from the American Type Culture Collection (Manassas, Va.). S. aureus strains SA-1199 (clinical isolate, susceptible), SA-1199B (SA-1199, NorA overproducing, also has A116E GrlA mutation), SA-8325-4 (NCTC 8325 cured of prophages), SA-K2068 (SA-8325-4, non-NorA multidrug efflux pump overproducing mutation) were obtained from Glenn Kaatz (Kaatz et al., “Identification and characterization of a novel efflux-related multidrug resistance phenotype in Staphylococcus aureus”, J. Antimicrob. Chemother. 50:833-838 (2002); 1993; Kaatz et al., “Phenothiazines and thioxanthenes inhibit multidrug efflux pump activity in Staphylococcus aureus”, Antimicrob. Agents Chemother. 47:719-726, Kaatz et al., “Efflux-mediated fluoroquinolone resistance in Staphylococcus aureus. Antimicrob. Agents Chemother.”, 37:1086-1094, 1993)).
# 3% sterile laked horse blood (Quad Five, Ryegate, Mont.) was added to assays for E. faecalis and S. Pneumoniae. A final concentration of 1% DMSO was present in all assays.
# Recent more hydrophobic fluoroquinolones such as gatifloxacin and moxifloxacin are less well recognized by NorA; however, recently one other pump in S. aureus has been described which also recognizes hydrophobic fluoroquinolones (Kaatz et al. 2002, supra). To investigate the potential of A-106 and C-9 to block the efflux of several fluoroquinolones in cells with constituitively over-expressed efflux pumps, we used S. aureus strains SA-1199B and K2068 (Table 3). […] Kaatz et al., “Phenothiazines and thioxanthenes inhibit multidrug efflux pump activity in Staphylococcus aureus”, Antimicrob. Agents Chemother. 47:719-726 (2003).
# S. aureus ATCC 29213 [4] = assay: MIC by NCCLS microdilution, antibacterial agents with and without EPI; conditions: for Fold-reduction in MIC: gatifloxacin; for MIC: Staphylococcus aureus, ATCC29213, S. aureus ATCC 29213
# Description: 3% sterile laked horse blood (Quad Five, Ryegate, Mont.) was added to assays for E. faecalis and S. Pneumoniae. A final concentration of 1% DMSO was present in all assays. […]
# A-106 and C-9 were tested at their respective MECs in combination with a variety of different classes of antibiotics against S. aureus ATCC 29213 (Table 2).
# S. aureus ATCC 29213 [5] = assay: as above; conditions: at 100 μg/ml
# [6] = S. aureus SA-1199B (NorA overproducer) (Table 4)
# [7] = S. aureus SA-1199B, EPI at 4X the MEC for EtBr, VX-710 at 100 μg/ml
# [8] = SA-1199B, EPIs at 4 times MEC for EtBr, A-106 at 100 μg/ml
# [9] = S. aureus ATCC 29213, EPI at 4X the MEC for EtBr, VX-710 at 100 μg/ml
# [10] = S. aureus ATCC 29213, EPIs used at the MEC, except VX-710 at 100 μg/ml
smiles,measurement,setting,value
COc1cc(C(=O)C(=O)N2CCCC[C@H]2C(=O)OC(CCCc2cccnc2)CCCc2cccnc2)cc(OC)c1OC [A-106],MEC for EtBr efflux,"S. aureus ATCC 29213 [1]; ATCC 29213, Table 1",≤ 100 µg/mL
same,MEC of EPI,S. aureus ATCC 29213 [1],≧100 μg/ml
same,MEC of EPI,E. faecalis ATCC 29212,≧100 μg/ml
same,change of norfloxacin MIC in combination with EPI,"[2]; S. aureus isolates # 3, 6, 9",reductions in MICs
same,change of ciprofloxacin MIC in combination with EPI,[2]; S. aureus isolates # 3 and 5,reductions in MICs
same,isolates with >2-fold decrease in the MIC for ciprofloxacin,"[2]; S. aureus isolates, Table 5A",10/15
same,isolates with >2-fold decrease in the MIC for norfloxacin,"[2]; S. aureus isolates, Table 5A",13/15
same,restoration of clinical susceptibility,[2]; highly fluoroquinolone-resistant strains in the panel,insufficient to restore clinical susceptibility
same,Ciprofloxacin MIC with EPI,[2]; S. aureus clinical isolate 1,0.5 µg/mL
same,Norfloxacin MIC with EPI,[2]; S. aureus clinical isolate 1,2 µg/mL
same,Ciprofloxacin MIC with EPI,[2]; S. aureus clinical isolate 2,0.12 µg/mL
same,Norfloxacin MIC with EPI,[2]; S. aureus clinical isolate 2,≦0.25 μg/ml
same,Ciprofloxacin MIC with EPI,[2]; S. aureus clinical isolate 3,≦0.06 μg/ml
same,Norfloxacin MIC with EPI,[2]; S. aureus clinical isolate 3,≦0.25 μg/ml
same,Ciprofloxacin MIC with EPI,[2]; S. aureus clinical isolate 4,64 µg/mL
same,Norfloxacin MIC with EPI,[2]; S. aureus clinical isolate 4,128 µg/mL
same,Ciprofloxacin MIC with EPI,[2]; S. aureus clinical isolate 5,≦0.06 μg/ml
same,Norfloxacin MIC with EPI,[2]; S. aureus clinical isolate 5,≦0.25 μg/ml
same,Ciprofloxacin MIC with EPI,[2]; S. aureus clinical isolate 6,8 µg/mL
same,Norfloxacin MIC with EPI,[2]; S. aureus clinical isolate 6,8 µg/mL
same,Ciprofloxacin MIC with EPI,[2]; S. aureus clinical isolate 7,≦0.06 μg/ml
same,Norfloxacin MIC with EPI,[2]; S. aureus clinical isolate 7,≦0.25 μg/ml
same,Ciprofloxacin MIC with EPI,[2]; S. aureus clinical isolate 8,0.25 µg/mL
same,Norfloxacin MIC with EPI,[2]; S. aureus clinical isolate 8,1 µg/mL
same,Ciprofloxacin MIC with EPI,[2]; S. aureus clinical isolate 9,≦0.06 μg/ml
same,Norfloxacin MIC with EPI,[2]; S. aureus clinical isolate 9,≦0.25 μg/ml
same,Ciprofloxacin MIC with EPI,[2]; S. aureus clinical isolate 10,8 µg/mL
same,Norfloxacin MIC with EPI,[2]; S. aureus clinical isolate 10,16 µg/mL
same,Ciprofloxacin MIC with EPI,[2]; S. aureus clinical isolate 11,8 µg/mL
same,Norfloxacin MIC with EPI,[2]; S. aureus clinical isolate 11,32 µg/mL
same,Ciprofloxacin MIC with EPI,[2]; S. aureus clinical isolate 12,≦0.06 μg/ml
same,Norfloxacin MIC with EPI,[2]; S. aureus clinical isolate 12,≦0.25 μg/ml
same,Ciprofloxacin MIC with EPI,[2]; S. aureus clinical isolate 13,32 µg/mL
same,Norfloxacin MIC with EPI,[2]; S. aureus clinical isolate 13,64 µg/mL
same,Ciprofloxacin MIC with EPI,[2]; S. aureus clinical isolate 14,32 µg/mL
same,Norfloxacin MIC with EPI,[2]; S. aureus clinical isolate 14,64 µg/mL
same,Ciprofloxacin MIC with EPI,[2]; S. aureus clinical isolate 15,32 µg/mL
same,Norfloxacin MIC with EPI,[2]; S. aureus clinical isolate 15,64 µg/mL
same,MIC of gatifloxacin with EPI,[3]; [6],0.25 µg/mL
same,MIC of EtBr with EPI,[3]; [7],0.4 µg/mL
same,MIC of ciprofloxacin with EPI,[3]; [7],0.5 µg/mL
same,MIC of levofloxacin with EPI,[3]; [7],0.5 µg/mL
same,MIC of norfloxacin with EPI,[3]; [7],2 µg/mL
same,reduction of MIC of ciprofloxacin,[3]; [8],2 fold
same,reduction of MIC of gatifloxacin,[3]; [8],2 fold
same,reduction of MIC of levofloxacin,[3]; [8],1 fold
same,reduction of MIC of norfloxacin,[3]; [8],8 fold
same,Fold-reduction in MIC,[3],2
same,MIC of gatifloxacin with EPI,S. aureus ATCC 29213 [4]; S. aureus ATCC 29213 (Table 4),0.125 µg/mL
same,"effect on the MICs of gatifloxacin, erythromycin, azithromycin, chloramphenicol, ceftriaxone, and linezolid","S. aureus ATCC 29213 [4]; S. aureus ATCC 29213, Table 2",No effect
same,MIC of EPI,"S. aureus ATCC 29213 [4]; S. aureus ATCC 29213, EPI alone",>100 µg/mL
same,MIC of EtBr with EPI,S. aureus ATCC 29213 [4]; [9],0.2 µg/mL
same,MIC of ciprofloxacin with EPI,S. aureus ATCC 29213 [4]; [9],0.063 µg/mL
same,MIC of gatifloxacin with EPI,S. aureus ATCC 29213 [4]; [9],0.063 µg/mL
same,MIC of gentamicin with EPI,S. aureus ATCC 29213 [4]; [9],0.125 µg/mL
same,MIC of levofloxacin with EPI,S. aureus ATCC 29213 [4]; [9],0.125 µg/mL
same,MIC of norfloxacin with EPI,S. aureus ATCC 29213 [4]; [9],0.125 µg/mL
same,Fold-reduction in EtBr MIC,S. aureus ATCC 29213 [4]; [10],31
same,MIC of EtBr with EPI,S. aureus ATCC 29213 [4]; [10],0.2 µg/mL
same,reduction of the MIC of EtBr,"S. aureus ATCC 29213 [4]; S. aureus wild type, EPI up to 100 μg/ml, data not shown",30 fold
same,Fold-reduction in MIC,S. aureus ATCC 29213 [4]; S. aureus ATCC 29213,1
same,effect of EPI on the MIC of gatifloxacin,S. aureus ATCC 29213 [4]; wild type strain ATCC 29213,unaffected
same,intrinsic antibacterial activity of EPI,S. aureus ATCC 29213 [5],no intrinsic antibacterial activity
"COC(=O)[C@H]1[C@H]2C[C@@H]3c4[nH]c5cc(OC)ccc5c4CCN3C[C@H]2C[C@@H](OC(=O)c2cc(OC)c(OC)c(OC)c2)[C@@H]1OC [reserpine, reference compound]",MEC of EPI,S. aureus ATCC 29213 [1],6.3 µg/mL
same,MEC of EPI,E. faecalis ATCC 29212,≧100 μg/ml
same,MIC of gatifloxacin with EPI,[3]; [6],0.25 µg/mL
same,MIC of ciprofloxacin with EPI,[3]; [7],0.5 µg/mL
same,MIC of gatifloxacin with EPI,[3]; [7],0.125 µg/mL
same,MIC of gentamicin with EPI,[3]; [7],0.125 µg/mL
same,MIC of levofloxacin with EPI,[3]; [7],0.5 µg/mL
same,MIC of norfloxacin with EPI,[3]; [7],4 µg/mL
same,MIC,"[3]; Staphylococcus aureus, read-out: MIC of EtBr with EPI",0.8 µg/mL
same,Fold-reduction in MIC,[3],2
same,MIC of gatifloxacin with EPI,S. aureus ATCC 29213 [4]; S. aureus ATCC 29213 (Table 4),0.125 µg/mL
same,MIC of ciprofloxacin with EPI,S. aureus ATCC 29213 [4]; [9],0.063 µg/mL
same,MIC of gatifloxacin with EPI,S. aureus ATCC 29213 [4]; [9],0.063 µg/mL
same,MIC of gentamicin with EPI,S. aureus ATCC 29213 [4]; [9],0.125 µg/mL
same,MIC of levofloxacin with EPI,S. aureus ATCC 29213 [4]; [9],0.125 µg/mL
same,MIC of norfloxacin with EPI,S. aureus ATCC 29213 [4]; [9],0.25 µg/mL
same,Fold-reduction in EtBr MIC,S. aureus ATCC 29213 [4]; [10],4
same,MIC,"S. aureus ATCC 29213 [4]; EPI alone, read-out: MIC of EPI",> 100 µg/mL
same,MIC,"S. aureus ATCC 29213 [4]; EPI at 4X the MEC for EtBr, VX-710 at 100 μg/ml, read-out: MIC of EtBr with EPI",0.4 µg/mL
same,MIC,"S. aureus ATCC 29213 [4]; EPIs used at the MEC, except VX-710 at 100 μg/ml, read-out: MIC of EtBr with EPI",1.6 µg/mL
same,Fold-reduction in MIC,S. aureus ATCC 29213 [4]; S. aureus ATCC 29213,1
